# According to ChEMBL document CHEMBL2074080, “Enhanced drug-induced apoptosis associated with P-glycoprotein overexpression is specific to antimicrotubule agents” (Pharm Res, 2003):
# Target: ATP-dependent translocase ABCB1 (Homo sapiens, UniProt P08183)
# Test: TP_TRANSPORTER: drug resistance in MDR1-expressing MCF7 cells
# Type: functional, cell-based
# Chain of ATP-dependent translocase ABCB1 (P08183 whole entry): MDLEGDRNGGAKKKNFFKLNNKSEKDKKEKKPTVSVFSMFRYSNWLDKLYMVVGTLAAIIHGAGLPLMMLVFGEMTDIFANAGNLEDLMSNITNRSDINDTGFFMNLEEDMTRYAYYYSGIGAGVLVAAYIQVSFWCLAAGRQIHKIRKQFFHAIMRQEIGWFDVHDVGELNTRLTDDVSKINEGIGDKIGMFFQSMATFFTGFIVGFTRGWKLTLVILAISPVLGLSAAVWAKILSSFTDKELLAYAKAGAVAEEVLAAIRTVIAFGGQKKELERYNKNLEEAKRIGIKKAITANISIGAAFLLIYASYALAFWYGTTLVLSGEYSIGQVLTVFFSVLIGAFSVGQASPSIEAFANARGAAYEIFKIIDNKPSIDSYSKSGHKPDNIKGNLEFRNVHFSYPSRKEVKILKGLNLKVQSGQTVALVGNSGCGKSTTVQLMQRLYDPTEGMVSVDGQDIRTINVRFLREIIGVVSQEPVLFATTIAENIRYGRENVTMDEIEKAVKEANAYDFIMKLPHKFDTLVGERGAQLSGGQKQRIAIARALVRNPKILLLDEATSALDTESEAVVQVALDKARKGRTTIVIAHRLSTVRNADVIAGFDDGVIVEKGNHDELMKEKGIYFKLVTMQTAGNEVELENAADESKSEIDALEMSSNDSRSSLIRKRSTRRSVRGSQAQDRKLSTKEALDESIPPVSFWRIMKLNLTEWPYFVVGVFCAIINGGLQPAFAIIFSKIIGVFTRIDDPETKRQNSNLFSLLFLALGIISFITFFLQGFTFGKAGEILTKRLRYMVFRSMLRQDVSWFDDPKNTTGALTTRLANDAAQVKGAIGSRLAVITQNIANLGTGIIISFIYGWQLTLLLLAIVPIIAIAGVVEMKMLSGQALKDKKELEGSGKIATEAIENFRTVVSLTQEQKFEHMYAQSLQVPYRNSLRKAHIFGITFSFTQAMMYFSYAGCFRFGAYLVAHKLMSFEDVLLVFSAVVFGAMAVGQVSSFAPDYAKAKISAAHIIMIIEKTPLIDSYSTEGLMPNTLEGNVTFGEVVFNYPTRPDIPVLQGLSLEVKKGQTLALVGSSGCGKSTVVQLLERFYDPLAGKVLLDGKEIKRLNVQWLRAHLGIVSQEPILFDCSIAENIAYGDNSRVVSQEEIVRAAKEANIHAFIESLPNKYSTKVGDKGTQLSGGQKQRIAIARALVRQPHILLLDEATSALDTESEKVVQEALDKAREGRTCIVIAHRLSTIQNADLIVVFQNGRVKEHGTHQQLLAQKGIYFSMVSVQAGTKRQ
row,Activity,Compound
1,substrate [+],CC(=O)O[C@H]1C(=O)[C@@]2(C)[C@H]([C@H](OC(=O)c3ccccc3)[C@]3(O)C[C@H](OC(=O)[C@H](O)[C@@H](NC(=O)c4ccccc4)c4ccccc4)C(C)=C1C3(C)C)[C@]1(OC(C)=O)CO[C@@H]1C[C@@H]2O [PACLITAXEL]
2,substrate [+],CC[C@]1(O)C[C@H]2CN(CCc3c([nH]c4ccccc34)[C@@](C(=O)OC)(c3cc4c(cc3OC)N(C=O)[C@H]3[C@@](O)(C(=O)OC)[C@H](OC(C)=O)[C@]5(CC)C=CCN6CC[C@]43[C@@H]65)C2)C1 [VINCRISTINE]

# Second part, the compound before the results:
row,Compound,Activity
1,CISPLATIN,is not a substrate [-]
2,CC[C@@]1(O)C(=O)OCc2c1cc1n(c2=O)Cc2cc3ccccc3nc2-1 [CAMPTOTHECIN],is not a substrate [-]
3,O=c1[nH]c(=O)n([C@@H]2O[C@H](CO)[C@@H](O)[C@H]2O)cc1F [5-FLUOROURIDINE],is not a substrate [-]
4,COc1cccc2c1C(=O)c1c(O)c3c(c(O)c1C2=O)C[C@@](O)(C(=O)CO)C[C@@H]3O[C@H]1C[C@H](N)[C@H](O)[C@H](C)O1 [DOXORUBICIN],substrate [+]
